Where a name gives a salt, the structure may show the parent alone.

T1 sequence (P98073 whole entry): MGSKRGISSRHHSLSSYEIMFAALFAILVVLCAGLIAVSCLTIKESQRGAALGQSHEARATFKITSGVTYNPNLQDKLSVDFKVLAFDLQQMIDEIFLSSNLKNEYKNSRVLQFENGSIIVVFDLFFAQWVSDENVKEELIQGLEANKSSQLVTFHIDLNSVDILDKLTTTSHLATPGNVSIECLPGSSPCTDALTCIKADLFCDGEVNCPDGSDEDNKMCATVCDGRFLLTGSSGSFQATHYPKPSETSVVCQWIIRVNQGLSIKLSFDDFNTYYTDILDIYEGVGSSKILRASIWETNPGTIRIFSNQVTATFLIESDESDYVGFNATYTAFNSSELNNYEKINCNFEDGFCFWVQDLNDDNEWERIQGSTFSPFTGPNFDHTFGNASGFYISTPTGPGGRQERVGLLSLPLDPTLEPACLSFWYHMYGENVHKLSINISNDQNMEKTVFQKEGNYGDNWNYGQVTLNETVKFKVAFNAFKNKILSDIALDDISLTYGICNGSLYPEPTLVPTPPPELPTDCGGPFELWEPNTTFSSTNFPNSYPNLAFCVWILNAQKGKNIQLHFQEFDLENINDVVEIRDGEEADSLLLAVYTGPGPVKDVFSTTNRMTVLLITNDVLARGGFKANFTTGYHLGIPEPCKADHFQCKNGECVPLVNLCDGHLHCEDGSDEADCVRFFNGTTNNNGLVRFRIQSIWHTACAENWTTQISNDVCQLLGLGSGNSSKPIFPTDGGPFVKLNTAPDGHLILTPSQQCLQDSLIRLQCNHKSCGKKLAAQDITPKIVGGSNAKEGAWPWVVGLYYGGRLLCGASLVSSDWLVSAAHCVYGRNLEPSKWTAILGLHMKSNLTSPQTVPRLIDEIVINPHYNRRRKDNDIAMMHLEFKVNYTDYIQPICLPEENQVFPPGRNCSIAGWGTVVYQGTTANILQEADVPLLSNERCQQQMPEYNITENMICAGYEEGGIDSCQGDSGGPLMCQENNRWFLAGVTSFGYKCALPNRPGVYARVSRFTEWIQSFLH

The experiment concerns the target T1, Human recombinant enteropeptidase (Homo sapiens, UniProt P98073).
T1 construct: purchased ITSI-Biosciences LLC #REN-260
In words: Human enteropeptidase inhibitory activity (Test Example 1). The format is biochemical. The settings on record: 3.3 μM test compound; inhibition rate from fluorescence intensity at 2 hours after the start of the reaction; read-out: 3.3 μM Inhibition. Summed up:
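Recombinant human enteropeptidase in 50 mM Tricine pH 8.0, 0.01% Tween 20, 10 mM CaCl2, with a 5FAM/CPQ2-quenched peptide substrate (2.1 μM solution before mixing). Compound came from 1 mM DMSO stock diluted 100-fold in buffer. Fluorescence (ex 485/em 535 nm) at 2 h gave % inhibition versus no-compound and no-enzyme controls.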
On to `N=C(N)Nc1ccc2c(c1)CCCOc1c(cccc1C(=O)N[C@@H](CS(=O)(=O)O)C(=O)O)OC2=O` [Example 6, N-((10-Carbamimidamido-13-oxo-6,7,8,13-tetrahydrodibenzo[b,f][1,4]dioxecin-4-yl)carbonyl)-3-sulfo-L-alanine], for which the inhibition (as a rule, the relative decrease from the control value, in per cent) at 3.3 µM worked out at 101%.

On to `N=C(N)Nc1ccc2c(c1)CCCOc1c(cccc1C(=O)N(CC(=O)O)C(CC(=O)O)CC(=O)O)OC2=O` [Example 106, 3-(((10-Carbamimidamido-13-oxo-6,7,8,13-tetrahydrodibenzo[b,f][1,4]dioxecin-4-yl)carbonyl) (carboxymethyl)amino)pentanedioic acid], for which the inhibition at 3.3 µM worked out at 100%.

Regarding `N=C(N)Nc1ccc2c(c1)OCCCc1c(cccc1C(=O)N[C@@H](CC(=O)O)C(=O)O)OC2=O` [Example 84, N-((3-carbamimidamido-14-oxo-7,8-dihydro-6H,14H-dibenzo[b,f][1,5]dioxecin-9-yl)carbonyl)-L-aspartic acid], the inhibition at 3.3 µM is 101%.

With `N=C(N)Nc1ccc2c(c1)CCCOc1c(cccc1C(=O)O)OC2=O` [Example 29, 10-carbamimidamido-13-oxo-6,7,8,13-tetrahydro-dibenzo[b,f] [1,4]dioxecine-4-carboxylic acid], the inhibition at 3.3 µM was determined as 101%.

For `N=C(N)Nc1ccc2c(c1)CCCCOc1c(CCC(=O)N[C@@H](CC(=O)O)C(=O)O)cccc1OC2=O` [Example 44, N-(3-(11-Carbamimidamido-14-oxo-7,8,9,14-tetrahydro-6H-dibenzo[b,f][1,4]dioxacycloundecin-4-yl)propanoyl)-L-aspartic acid trifluoroacetate], the inhibition at 3.3 µM amounted to 96%.

Take `N=C(N)Nc1ccc2c(c1)CCCOc1c(cccc1C(=O)N(CC(=O)O)Cc1ccccc1C(=O)O)OC2=O` [Example 127]: the inhibition at 3.3 µM worked out at 100%.

For `N=C(N)Nc1ccc2c(c1)CCCOc1c(CCC(=O)N[C@@H](Cc3ccc(O)cc3)C(=O)O)cccc1OC2=O` [Example 95, N-(3-(10-carbamimidamido-13-oxo-6,7,8,13-tetrahydro-dibenzo[b,f] [1,4]dioxecin-4-yl)propanoyl)-L-tyrosine], the inhibition at 3.3 µM turned out to be 101%.

As for `N=C(N)Nc1ccc2c(c1)CCCOc1c(cccc1C(=O)N(Cc1ccc(C(=O)O)cc1)[C@@H](CC(=O)O)C(=O)O)OC2=O` [Example 143, N-((10-Carbamimidamido-13-oxo-6,7,8,13-tetrahydrodibenzo[b,f][1,4]dioxecin-4-yl)carbonyl)-N-(4-carboxybenzyl)-L-aspartic acid], the inhibition at 3.3 µM worked out at 100%.

For `N=C(N)Nc1ccc2c(c1)CCCOc1c(cccc1C(=O)N(CCC(=O)O)Cc1cccc(C(=O)O)c1)OC2=O` [Example 134, 3-((((10-carbamimidamido-13-oxo-6,7,8,13-tetrahydro-dibenzo[b,f] [1,4]dioxecin-4-yl)carbonyl)(2-carboxyethyl)amino)methyl)benzoic acid], the inhibition at 3.3 µM turned out to be 100%.

Turning to `N=C(N)Nc1ccc2c(c1)CCCOc1c(cccc1C(=O)N(CC(=O)O)Cc1cccc(C(=O)O)c1)OC2=O` [Example 71, 3-((((10-Carbamimidamido-13-oxo-6,7,8,13-tetrahydrodibenzo[b,f][1,4]dioxecin-4-yl)carbonyl) (carboxymethyl)amino)methyl)benzoic acid], the inhibition at 3.3 µM turned out to be 100%.

Regarding `N=C(N)Nc1ccc2c(c1)CCCOc1c(cccc1C(=O)N(CC(=O)O)Cc1cccc(CN(CC(=O)O)CC(=O)O)c1)OC2=O` [Example 116, N-(3-((Bis(carboxymethyl)amino)methyl)benzyl)-N-((10-carbamimidamido-13-oxo-6,7,8,13-tetrahydrodibenzo[b,f][1,4]dioxecin-4-yl)carbonyl)glycine], the inhibition at 3.3 µM was found to be 99%.

As to `N=C(N)Nc1ccc2c(c1)CCCCc1c(cc3c(c1C(=O)N[C@@H](CC(=O)O)C(=O)O)CCO3)OC2=O` [Example 40, N-((3-Carbamimidamido-15-oxo-5,7,8,10,11,15-hexahydro-6H-12,14-dioxabenzo[5,6]cyclodeca[1,2-f]inden-9-yl)carbonyl)-L-aspartic acid], the inhibition at 3.3 µM came out at 100%.

For the compound `N=C(N)Nc1ccc2c(c1)CCCOc1c(cccc1C(=O)NC(CC(=O)O)CC(=O)O)OC2=O` [Example 11, 3-(((10-Carbamimidamido-13-oxo-6,7,8,13-tetrahydrodibenzo[b,f][1,4]dioxecin-4-yl)carbonyl)amino)pentanedioic acid], the inhibition at 3.3 µM turned out to be 101%.

As to `N=C(N)Nc1ccc2c(c1)CCCOc1c(cccc1C(=O)N[C@@H](CCC(N)=O)C(=O)O)OC2=O` [Example 16, N^~2^~-((10-carbamimidamido-13-oxo-6,7,8,13-tetrahydro-dibenzo[b,f] [1,4]dioxecin-4-yl)carbonyl)-L-glutamine], the inhibition at 3.3 µM worked out at 101%.

For the compound `N=C(N)c1ccc2c(c1)CCCCc1cc(C(=O)N[C@@H](CC(=O)O)C(=O)O)ccc1C(=O)O2` [Example 69, N-((10-Carbamimidoyl-14-oxo-5,7,8,14-tetrahydro-6H-dibenzo[b,h]oxecin-3-yl)carbonyl)-L-aspartic acid trifluoroacetate], the inhibition at 3.3 µM came to 100%.

Turning to `N=C(N)Nc1ccc2c(c1)CCCCc1c(CCC(=O)N[C@@H](CC(=O)O)C(=O)O)cccc1OC2=O` [Example 83, N-(3-(3-carbamimidamido-14-oxo-5,7,8,14-tetrahydro-6H-dibenzo[b,h]oxecin-9-yl)propanoyl)-L-aspartic acid], the inhibition at 3.3 µM was 102%.

`N=C(N)Nc1ccc2c(c1)CCCOc1c(cccc1C(=O)Nc1ccc(S(=O)(=O)O)cc1)OC2=O` [Example 5, N-(((10-carbamimidamido-13-oxo-6,7,8,13-tetrahydro-dibenzo[b,f] [1,4]dioxecin-4-yl)carbonyl)amino) benzenesulfonic acid]: the inhibition at 3.3 µM worked out at 101%.

As to `N=C(N)Nc1ccc2c(c1)CCCOc1c(cccc1C(=O)N(CC(=O)O)CC(=O)N(CC(=O)O)Cc1cccc(C(=O)O)c1)OC2=O` [Example 141, N-((10-Carbamimidamido-13-oxo-6,7,8,13-tetrahydrodibenzo[b,f][1,4]dioxecin-4-yl)carbonyl)-N-(carboxymethyl)glycyl-N-(3-carboxybenzyl)glycine], the inhibition at 3.3 µM worked out at 100%.

For `N=C(N)Nc1ccc2c(c1)CCCOc1c(cccc1C(=O)N[C@H](CC(=O)O)C(=O)O)OC2=O` [Example 2, N-((10-Carbamimidamido-13-oxo-6,7,8,13-tetrahydrodibenzo[b,f][1,4]dioxecin-4-yl)carbonyl)-D-aspartic acid], the inhibition at 3.3 µM was determined as 101%.

For the compound `N=C(N)Nc1ccc2c(c1)CCCOc1ccccc1OC2=O` [Example 68, 1-(13-Oxo-6,7,8,13-tetrahydrodibenzo[b,f][1,4]dioxecin-10-yl)guanidine trifluoroacetate], the inhibition at 3.3 µM was determined as 83%.

On to `N=C(N)Nc1ccc2c(c1)CCCCc1cc3c(cc1OC2=O)OC[C@H]3CC(=O)NCCS(=O)(=O)O` [Example 35, 2-((((10S)-3-carbamimidamido-15-oxo-5,7,8,10,11,15-hexahydro-6H-12,14-dioxabenzo[5,6]cyclodeca[1,2-f]inden-10-yl)acetyl)amino)ethane-sulfonic acid], for which the inhibition at 3.3 µM came to 90%.

On to `N=C(N)Nc1ccc2c(c1)CCCCOc1c(cccc1C(=O)N[C@@H](CC(=O)O)C(=O)O)OC2=O` [Example 82, N-((11-carbamimidamido-14-oxo-7,8,9,14-tetrahydro-6H-dibenzo[b,f][1,4]dioxacycloundecin-4-yl)carbonyl)-L-aspartic acid], for which the inhibition at 3.3 µM stood at 102%.

In the case of `N=C(N)Nc1ccc2c(c1)CCCc1cc(C(=O)N[C@@H](CC(=O)O)C(=O)O)ccc1OC2=O` [Example 73, N-((9-carbamimidamido-6-oxo-6,11,12,13-tetrahydro-dibenzo[b,g]oxonin-2-yl)carbonyl)-L-aspartic acid], the inhibition at 3.3 µM stood at 100%.

In the case of `N=C(N)Nc1ccc2c(c1)CCCOc1c(cccc1C(=O)NCCC(=O)O)OC2=O` [Example 88, N-((10-carbamimidamido-13-oxo-6,7,8,13-tetrahydro-dibenzo[b,f] [1,4]dioxecin-4-yl)carbonyl)-beta-alanine], the inhibition at 3.3 µM came to 102%.

Take `N=C(N)Nc1ccc2c(c1)CCCOc1c(cccc1C1=NO[C@@](CC(=O)O)(C(=O)O)C1)OC2=O` (stereo in doubt) [Example 22, 3-(10-Carbamimidamido-13-oxo-6,7,8,13-tetrahydrodibenzo[b,f][1,4]dioxecin-4-yl)-5-(carboxymethyl)-4,5-dihydro-1,2-oxazole-5-carboxylic acid]: the inhibition at 3.3 µM stood at 101%.

On to `N=C(N)Nc1ccc2c(c1)CCCOc1c(cccc1C(=O)NCS(=O)(=O)O)OC2=O` [Example 27, (((10-carbamimidamido-13-oxo-6,7,8,13-tetrahydro-dibenzo[b,f] [1,4]dioxecin-4-yl)carbonyl)amino) methanesulfonic acid], for which the inhibition at 3.3 µM was 102%.

Regarding `N=C(N)Nc1ccc2c(c1)OCCc1cc(CCC(=O)N[C@@H](CC(=O)O)C(=O)O)ccc1OC2=O` [Example 50, N-(3-(9-Carbamimidamido-6-oxo-12,13-dihydro-6H-dibenzo[b,f][1,5]dioxonin-2-yl)propanoyl)-L-aspartic acid trifluoroacetate], the inhibition at 3.3 µM turned out to be 101%.
